Each structure is given as a SMILES string. pIC50: −log10 of the molar value. Calls of active or inactive are those of the source. The calls are words filed in the database; no cut-off is given here.

One data set addresses Acetylcholinesterase (Electrophorus electricus, UniProt O42275).
In the next data set the target is Cholinesterase (Equus caballus, UniProt P81908).
Data set [1] relates to PC-12. The experiment in a line: Protective effect against H2O2-induced cell death in rat PC12 cells at 5 uM preincubated for 2 hrs followed by H2O2 addition for 24 hrs by MTT assay. The class given is functional, cell-based.
Data set [2] concerns PC-12. The experiment in a line: Antioxidant activity in rat PC12 cells assessed as decrease of H2O2-induced ROS production at 2.5 uM preincubated for 2 hrs followed by H2O2 addition for 24 hrs by DCFH-DA /DAPI-based fluorescence assay. The data set is classed as functional, cell-based.
Data set [3] deals with Acetylcholinesterase (Electrophorus electricus) (UniProt O42275). In words: Mixed-type inhibition of electric eel AChE using ATC as substrate at 25 to 100 nM preincubated for 15 mins followed by substrate addition by Lineweavere-Burk plot analysis.
Acetylcholinesterase (Electrophorus electricus), sequence (O42275 24-633 limits assumed): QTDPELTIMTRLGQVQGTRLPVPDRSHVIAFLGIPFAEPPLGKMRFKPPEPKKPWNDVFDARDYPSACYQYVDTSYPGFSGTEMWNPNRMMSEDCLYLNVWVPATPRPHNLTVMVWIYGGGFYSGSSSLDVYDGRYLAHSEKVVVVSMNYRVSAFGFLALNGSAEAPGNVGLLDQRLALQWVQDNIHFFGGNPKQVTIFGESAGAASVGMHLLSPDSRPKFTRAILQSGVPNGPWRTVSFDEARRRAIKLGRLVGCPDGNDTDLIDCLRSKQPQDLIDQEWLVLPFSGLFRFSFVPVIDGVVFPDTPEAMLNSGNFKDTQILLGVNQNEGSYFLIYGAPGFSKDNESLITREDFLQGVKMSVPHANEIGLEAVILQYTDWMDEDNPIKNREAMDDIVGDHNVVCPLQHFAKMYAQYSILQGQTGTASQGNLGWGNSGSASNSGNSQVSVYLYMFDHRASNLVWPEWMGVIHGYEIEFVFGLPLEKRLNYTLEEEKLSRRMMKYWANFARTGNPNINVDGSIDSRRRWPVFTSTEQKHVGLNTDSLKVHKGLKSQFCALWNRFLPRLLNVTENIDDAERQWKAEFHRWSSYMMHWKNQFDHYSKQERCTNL
Data set [4] deals with Cholinesterase (Equus caballus) (UniProt P81908). The experiment in a line: Mixed-type inhibition of horse serum BChE using BTC as substrate at 12.5 to 100 nM preincubated for 15 mins followed by substrate addition by Lineweavere-Burk plot analysis.
Cholinesterase (Equus caballus), sequence (P81908 whole entry): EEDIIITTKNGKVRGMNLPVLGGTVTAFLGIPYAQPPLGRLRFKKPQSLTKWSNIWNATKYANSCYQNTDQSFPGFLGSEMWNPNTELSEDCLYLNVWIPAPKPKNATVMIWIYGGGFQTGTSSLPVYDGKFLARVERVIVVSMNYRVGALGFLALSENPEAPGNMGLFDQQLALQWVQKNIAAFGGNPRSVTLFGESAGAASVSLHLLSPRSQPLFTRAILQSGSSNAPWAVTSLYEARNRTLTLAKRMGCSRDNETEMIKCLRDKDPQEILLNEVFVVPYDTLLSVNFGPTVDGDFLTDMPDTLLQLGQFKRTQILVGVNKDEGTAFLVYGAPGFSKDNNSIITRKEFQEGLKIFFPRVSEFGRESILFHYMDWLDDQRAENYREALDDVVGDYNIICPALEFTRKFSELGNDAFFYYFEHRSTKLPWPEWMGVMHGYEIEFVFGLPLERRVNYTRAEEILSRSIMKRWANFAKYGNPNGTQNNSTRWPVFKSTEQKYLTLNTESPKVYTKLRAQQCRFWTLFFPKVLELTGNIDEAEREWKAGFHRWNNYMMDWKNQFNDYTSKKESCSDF
Data set [5] concerns the target T1, Amyloid-beta precursor protein (Homo sapiens, UniProt P05067). In words: Potency index, ratio of curcumin IC50 to compound IC50 for self-mediated amyloid beta (1 to 42) (unknown origin) aggregation.
Data set [6] deals with PC-12. In words: Protective effect against H2O2-induced cell death in rat PC12 cells at 1 to 5 uM preincubated for 2 hrs followed by H2O2 addition for 24 hrs by MTT assay. The data set is classed as functional, cell-based. (Tetrazolium assays rely on reduction of a dye to a coloured formazan, in cell work by metabolically active cells.)
The species named for another data set is Rattus norvegicus. In words: Cytotoxicity against rat PC12 cells assessed as reduction in cell viability at 1 to 5 uM after 2 hrs by MTT assay. The data set is classed as toxicity. Particulars: pc-12, 2 h.
In data set [7] the target is T1, Amyloid-beta precursor protein.
Description: Inhibition of self-mediated amyloid beta (1 to 42) (unknown origin) aggregation after 48 hrs by thioflavin T fluorescence assay
The target of data set [8] is Acetylcholinesterase (Electrophorus electricus) (UniProt O42275). The experiment in a line: Mixed-type inhibition of electric eel AChE using ATC as substrate at 1.25 to 5 uM preincubated for 15 mins followed by substrate addition by Lineweavere-Burk plot analysis.
Data set [9] has as its target Cholinesterase (Equus caballus) (UniProt P81908). Particulars: 125 to 500 nM.

Cholinesterase, sequence (P81908 whole entry): as above
Acetylcholinesterase, sequence (O42275 whole entry): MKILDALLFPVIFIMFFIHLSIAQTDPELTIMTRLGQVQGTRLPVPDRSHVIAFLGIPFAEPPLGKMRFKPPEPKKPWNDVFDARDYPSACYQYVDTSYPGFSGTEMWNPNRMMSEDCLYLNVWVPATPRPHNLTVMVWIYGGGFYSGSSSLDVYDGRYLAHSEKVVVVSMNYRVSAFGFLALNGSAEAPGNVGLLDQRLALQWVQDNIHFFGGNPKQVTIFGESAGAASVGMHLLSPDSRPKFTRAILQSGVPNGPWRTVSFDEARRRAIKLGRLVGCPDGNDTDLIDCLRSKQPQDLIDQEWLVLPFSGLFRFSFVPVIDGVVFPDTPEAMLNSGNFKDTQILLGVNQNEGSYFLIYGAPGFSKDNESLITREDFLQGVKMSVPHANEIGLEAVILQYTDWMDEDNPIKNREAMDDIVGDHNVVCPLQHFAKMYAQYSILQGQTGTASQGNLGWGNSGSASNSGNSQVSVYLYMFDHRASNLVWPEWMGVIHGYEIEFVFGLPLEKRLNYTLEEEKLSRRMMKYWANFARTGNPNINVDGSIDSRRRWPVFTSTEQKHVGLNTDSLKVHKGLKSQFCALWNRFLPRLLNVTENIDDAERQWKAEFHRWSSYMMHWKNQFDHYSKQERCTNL
T1 sequence (P05067 whole entry): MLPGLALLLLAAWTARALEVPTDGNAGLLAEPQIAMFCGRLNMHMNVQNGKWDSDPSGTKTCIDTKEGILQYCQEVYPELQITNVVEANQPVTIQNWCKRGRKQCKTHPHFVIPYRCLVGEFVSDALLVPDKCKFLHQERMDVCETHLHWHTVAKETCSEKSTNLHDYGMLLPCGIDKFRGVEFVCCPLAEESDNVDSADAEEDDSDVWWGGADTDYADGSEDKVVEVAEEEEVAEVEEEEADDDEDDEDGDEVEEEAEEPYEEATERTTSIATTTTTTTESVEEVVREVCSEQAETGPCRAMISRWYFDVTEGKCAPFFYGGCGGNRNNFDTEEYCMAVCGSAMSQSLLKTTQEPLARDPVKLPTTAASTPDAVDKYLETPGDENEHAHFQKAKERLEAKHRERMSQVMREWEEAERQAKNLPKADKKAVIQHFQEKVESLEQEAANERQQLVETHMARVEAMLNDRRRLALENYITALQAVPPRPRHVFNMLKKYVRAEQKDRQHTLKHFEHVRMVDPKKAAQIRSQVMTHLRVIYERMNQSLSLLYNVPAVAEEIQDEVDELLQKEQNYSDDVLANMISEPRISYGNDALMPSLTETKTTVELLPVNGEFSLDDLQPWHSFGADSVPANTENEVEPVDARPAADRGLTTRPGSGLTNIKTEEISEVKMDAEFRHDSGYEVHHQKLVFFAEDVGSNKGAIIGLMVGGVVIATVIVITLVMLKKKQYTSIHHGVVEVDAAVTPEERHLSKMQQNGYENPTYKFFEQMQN

With `CN(C)c1ccc(-c2cc(=O)c3ccc(OCC(=O)NCCCN4CCCC4)cc3o2)cc1`, the pIC50 was 5.12 on Acetylcholinesterase and 4.67 against Cholinesterase.
For `O=c1c(O)c(-c2ccc(O)c(O)c2)oc2cc(O)cc(O)c12`, the result with PC-12 [1] and in the data set with PC-12 [2] was Active.
`CN(C)CCNC(=O)COc1ccc2c(=O)cc(-c3ccc(N(C)C)cc3)oc2c1`: the pIC50 was 5.28 at Acetylcholinesterase and 4.97 at Cholinesterase.
For `CN(C)CCCNC(=O)COc1ccc2c(=O)cc(-c3ccc(N(C)C)cc3)oc2c1` the same measures were 4.92 and 4.87.
For `CN(C)c1ccc(-c2cc(=O)c3ccc(OCC(=O)NCCCCCCCCNc4c5c(nc6ccccc46)CCCC5)cc3o2)cc1` the same measures were 7.02 and 7.61.
As for `CN(C)c1ccc(-c2cc(=O)c3ccc(OCC(=O)NCCCCCCNc4c5c(nc6ccccc46)CCCC5)cc3o2)cc1`, the inhibition result in data set [3] and in data set [4] was “Active” throughout. Besides, the Ratio IC50 in data set [5] is 2. Moreover, the result in the data set with PC-12 [6], with PC-12 [1] and in the data set with PC-12 [2] was Active. In the data set filed under Rattus norvegicus, the Activity entry is on record as “Non-Toxic”. In addition, the negative-log IC50 (pIC50) against Acetylcholinesterase is 7.22; at Cholinesterase, 7.34; in [7], 5.02.
In the case of `CN(C)c1ccc(-c2cc(=O)c3ccc(OCC(=O)NCCCNc4c5c(nc6ccccc46)CCCC5)cc3o2)cc1`, the negative logarithm of the IC50 (pIC50) at Acetylcholinesterase is 6.11; against Cholinesterase, 6.58.
As to `CN(C)c1ccc(-c2cc(=O)c3ccc(OCC(=O)NCCNc4c5c(nc6ccccc46)CCCC5)cc3o2)cc1`, the negative-log IC50 (pIC50) against Acetylcholinesterase was 6.38; at Cholinesterase, 6.09.
With `CN(C)c1ccc(-c2cc(=O)c3ccc(OCC(=O)NCCN4CCCC4)cc3o2)cc1`, the pIC50 against Acetylcholinesterase was 5.50; at Cholinesterase, 4.57.
Taken in the same sequence, the figures for `CN(C)c1ccc(-c2cc(=O)c3ccc(OCC(=O)NCCCCNc4c5c(nc6ccccc46)CCCC5)cc3o2)cc1` were 5.83 and 6.48.
For the compound `CN(C)c1ccc(-c2cc(=O)c3ccc(OCC(=O)NCCCCCCN4CCCC4)cc3o2)cc1`, the negative logarithm of the IC50 (pIC50) on Acetylcholinesterase was 5.49; at Cholinesterase, 5.87.
Consider `CN(C)c1ccc(-c2cc(=O)c3ccc(OCC(=O)NCCCCN4CCCC4)cc3o2)cc1`, for which the pIC50 on Acetylcholinesterase was 5.32; at Cholinesterase, 4.94.
As to `CN(C)c1ccc(-c2cc(=O)c3ccc(OCC(=O)NCCCCCCCCN4CCCC4)cc3o2)cc1`, the inhibition entry in data set [8] and in data set [9] was “Active” throughout. In addition, the pIC50 on Acetylcholinesterase is 5.64; against Cholinesterase, 6.62.

In general, pIC50 refers to the negative decadic logarithm of the IC50, by convention in mol/L. Low values mean a large IC50, high ones a small IC50.

(Values after ChEMBL document CHEMBL3864125, “Design, synthesis and evaluation of 4-dimethylamine flavonoid derivatives as potential multifunctional anti-Alzheimer agents” (Eur J Med Chem, 2016).)
